Read-outs that look alike come from different tables or passages of the source.
Key:
[1] = molecular target: T1, "peripheral" receptor sites of benzodiazepines (Rattus norvegicus, UniProt P16257); test: Affinity for "peripheral" receptor sites of benzodiazepines: displacement of tritiated diazepam on kidney membranes from the rat; assay type: binding
T1 construct: on kidney membranes from the rat; from tissue; host or cells: rat kidney membranes
Description: The products have been studied according to the method of C. BRAESTRUP et al, Proc. Natl. Acad. Sci. USA, 1977, 74, 3805, on kidney membranes from the rat.

[2] = tested on: binding sites of (^3 H) diazepam in the kidney; details: cited from earlier work; for activity at the binding sites of (^3 H) diazepam in the kidney (peripheral level): in words; for classification by decreasing affinity, "peripheral" type: rank order
[3] = tested on: binding sites of (^3 H) diazepam in the brain; details: cited from earlier work

Row | Compound | Ki ([1]; read-out: Ki) [nM] | other results
1 | CCN(CC)C(=O)c1cc(-c2ccccc2)c2ccccc2c1 [Example 1, N,N-diethyl 4-phenyl naphthalene 2-carboxamide] | 5.4 | 
2 | CCN(CC)C(=O)c1cc(-c2ccccc2)c2ccccc2n1 [Example 3, N,N-diethyl 4-phenyl quinoline 2-carboxamide] | 27 | 
3 | CCN(CC)C(=O)c1cc2ccccc2c(-c2ccccc2)n1 [Example 5, N,N-diethyl 1-phenyl isoquinoline 3-carboxamide] | 150 | 
4 | CCN(CC)C(=O)c1cc2ccccc2c(-c2ccccc2Cl)n1 [Example 6, N,N-diethyl 1-(2-chloro-phenyl) isoquinoline 3-carboxamide] | 17 | 
5 | O=C(c1cc2ccccc2c(-c2ccccc2)n1)N1CCCCC1 [Example 7, 1-[3-(1-phenylisoquinolyl)carbonyl]piperidine] | 210 | 
6 | CCC(C)N(C)C(=O)c1cc2ccccc2c(-c2ccccc2)n1 (stereo not shown) [Example 10, N-methyl N(1-methylpropyl) 1-phenyl isoquinoline 3-carboxamide] |  | Ki [1]: 2 nM
7 | CCN(CC)C(=O)c1cc2ccccc2c(-c2cccc(Cl)c2)n1 [Example 11, N,N-diethyl 1-(3-chlorophenyl) isoquinoline 3-carboxamide] | 9 | 
8 | CCN(CC)C(=O)c1cc2ccccc2c(-c2ccc(C)cc2)n1 [Example 12, N,N-diethyl 1-(4-methylphenyl) isoquinoline 3-carboxamide] | 99 | 
9 | O=C(c1cc2ccccc2c(-c2ccccc2Cl)n1)N1CCCCC1 [Example 13, 1-[[1-(2-chlorophenyl) 3-isoquinolyl]carbonyl]piperidine] | 72 | 
10 | CCCN(CCC)C(=O)c1cc2ccccc2c(-c2ccccc2Cl)n1 [Example 14, N,N-dipropyl 1-(2-chlorophenyl) isoquinoline 3-carboxamide] | 18 | 
11 | CCN(CC)C(=O)c1cc2ccccc2c(-c2cccc(F)c2)n1 [Example 15, N,N-diethyl 1-(3-fluorophenyl) isoquinoline 3-carboxamide] | 20 | 
12 | CCC(C)N(C)C(=O)c1cc2ccccc2c(-c2ccccc2F)n1 (stereo not shown) [Example 16, N-methyl N-(1-methylpropyl) 1-(2-fluorophenyl) isoquinoline 3-carboxamide] | 0.9 | 
13 | CN(Cc1ccccc1)C(=O)c1cc2ccccc2c(-c2ccccc2Cl)n1 [Example 17, N-methyl N-phenylmethyl 1-(2-chlorophenyl) isoquinoline 3-carboxamide] | 117 | 
14 | CC(C)N(C(=O)c1cc2ccccc2c(-c2ccccc2Cl)n1)C(C)C [Example 24, N,N-di(1-methylethyl) 1-(2-chlorophenyl) isoquinoline 3-carboxamide] | 20 | 
15 | C=CC(C)N(C)C(=O)c1cc2ccccc2c(-c2ccccc2Cl)n1 (stereo not shown) [Example 25, N-methyl N(1-methylpropene-2-yl) 1-(2-chlorophenyl) isoquinoline 3-carboxamide] | 3 | 
16 | CCN(CC)C(=O)c1cc2sccc2c(-c2ccccc2Cl)n1 [Example 31, N,N-diethyl 4-(2-chlorophenyl) thieno[3,2-c]pyridine 6-carboxamide] | 9 | 
17 | CCN(CC)C(=O)c1cc2ccsc2c(-c2ccccc2Cl)n1 [Example 32, N,N-diethyl 7-(2-chlorophenyl) thieno[2,3-c]pyridine 5-carboxamide] | 6.3 | 
18 | CCN(CC)C(=O)c1nc(-c2ccccc2)c2ccccc2n1 [Example 33, N,N-diethyl 4-phenyl quinazoline 2-carboxamide] | 27 | 
19 | CCC(C)N(C)C(=O)c1cc(-c2ccccc2F)c2ccccc2n1 (stereo not shown) [Example 35, N-methyl N(1-methylpropyl) 4-(2-fluorophenyl) quinoline 2-carboxamide] | 2 | 
20 | CCN(CC)C(=O)c1cc(-c2cccc([N+](=O)[O-])c2)c2ccccc2n1 [Example 38, N,N-diethyl 4-(3-nitrophenyl) quinoline 2-carboxamide] | 30 | 
21 | CCCCN(CCCC)C(=O)c1cc2ccccc2c(-c2ccccc2)n1 [Example 39, N,N-dibutyl 1-phenyl isoquinoline 3-carboxamide] | 21 | 
22 | CCC1CCCCN1C(=O)c1cc2ccccc2c(-c2ccccc2)n1 (stereo not shown) [Example 40, 2-ethyl 1-[(1-phenyl 3-isoquinolyl)carbonyl]piperidine] | 16 | 
23 | CC[C@@H]1CCCCN1C(=O)c1cc2ccccc2c(-c2ccccc2)n1 [Example 41, 2(R)-ethyl 1-[(1-phenyl 3-isoquinolyl)carbonyl]piperidine] | 22 | 
24 | CC[C@H]1CCCCN1C(=O)c1cc2ccccc2c(-c2ccccc2)n1 [Example 42, 2(S)-ethyl 1-[(1-phenyl 3-isoquinolyl)carbonyl]piperidine] | 13 | 
25 | CCN(CC)C(=O)c1cc2ccccc2c(-c2cccc(C(F)(F)F)c2)n1 [Example 43, N,N-diethyl 1-(3-trifluoromethylphenyl) isoquinoline 3-carboxamide] | 13 | 
26 | CCC(C)N(C)C(=O)c1cc2ccsc2c(-c2ccccc2Cl)n1 (stereo not shown) [Example 46, N-methyl N-(1-methylpropyl) 7-(2-chlorophenyl) thieno[2,3-c]pyridine 5-carboxamide] | 7 | 
27 | CCC(C)N(C)C(=O)c1cc2sccc2c(-c2ccccc2Cl)n1 (stereo not shown) [Example 47, N-methyl N-(1-methylpropyl) 4-(2-chlorophenyl) thieno[3,2-c]pyridine 6-carboxamide] | 1 | 
28 | CN1C(=O)CN=C(c2ccc(Cl)cc2)c2cc(Cl)ccc21 [Ro-5-4864] |  | activity at the binding sites of (^3 H) diazepam in the kidney (peripheral level) [2]: very active at the peripheral level; classification by decreasing affinity, "peripheral" type [2]: Ro-5-4864>diazepam>clonazepam; affinity for the binding sites of (^3 H) diazepam in the brain (central level) ([3]; brain, in words): inactive at the central level; classification by decreasing affinity, "cerebral" type ([3]; rank order): clonazepan>diazepam>Ro-5-4864
29 | O=C1CN=C(c2ccccc2Cl)c2cc([N+](=O)[O-])ccc2N1 [clonazepam] |  | activity at the binding sites of (^3 H) diazepam in the kidney (peripheral level) [2]: practically inactive; classification by decreasing affinity, "peripheral" type [2]: Ro-5-4864>diazepam>clonazepam
30 | CN1C(=O)CN=C(c2ccccc2)c2cc(Cl)ccc21 [diazepam] |  | classification by decreasing affinity, "peripheral" type [2]: Ro-5-4864>diazepam>clonazepam

Source: patent publication US4499094A, “Derivatives of arene and hetero-arene carboxamides and their use as medicaments” (Pharmuka Laboratoires, priority 1982, dated 1985)
